In patent US8603993B2, “Compositions and methods modulating MG29 for the treatment of diabetes” (University of Medicine and Dentistry of New Jersey, priority 2009, dated 2013):
“Also recorded” adds a separate entry of the source. Read-outs that look alike come from different tables or passages of the source. No end group written: not given here.

Experiments:
[1] = patients treated with Januvia; cited from earlier work
WT muscle fibers = assay: Osmotic shock-induced Ca2+ sparks in isolated FDB muscle fibers (confocal imaging); format: cell-based, mouse; settings: GLP1 treatment
Procedure: (§1) The Ca spark response in skeletal muscle is compromised in mg29−/− and diabetic muscle. […] Considering that we see a similar functional phenotype with glucose handling between the mg29−/− animal and diabetic patients, we tested if the we would see similar defects in Ca signaling as well. Ca spark measurement is performed in 13-16 weeks old control wild type, type I diabetic mice (akita) or type II diabetic mice (db/db). Non-fasted serum glucose levels are recorded from blood samples taken from the tail vein immediately before sacrificing the mice. Following an established protocol in our laboratory, we measured Ca sparks in muscle fibers isolated from the flexor digitorum brevis (FDB). We observed no increase in the frequency of spontaneous resting Ca sparks in db/db muscle fibers (data not shown). […] The degree that the spark frequency decreased could be directly correlated with the blood glucose level of the animal, with more diabetic animals displaying less sparks than those animals with lower blood glucose levels (FIG. 9b).
(§2) FDB skeletal muscle fiber isolation. Mice were sacrificed by cervical dislocation and hind limbs were surgically removed and placed into Isotonic Tyrode with measured osmolarity of 290 mOsm. Flexor Digitorum Brevis (FDB) muscles were excised and transferred into Tyrode supplemented with 0.2% type I collagenase (Sigma C-0310), for 90 minutes at 37° C. Muscle fibers were gently dissociated by several passages through a small diameter pipette. Isolated FDB muscle fibers were plated onto a ΔTC glass-bottomed dishes (Bioptech Inc.) in 1 ml of Tyrode buffer.
(§3) Confocal Ca^2+ imaging and spark analysis. Following individual muscle fiber isolation, the fibers were plated onto a dish containing isotonic tyrode solution (290 mOsm). 10 μM Fluo4-AM, a membrane permeable cytosolic Ca^2+ indicator dye is loaded onto the dish and left incubated for 60 minutes in room temperature along with different drug treatment. Replacing 50% of the dish volume with isotonic Tyrode for three times washed excess dye from the dish. Using brightfield confocal microscopy, fibers were then be screened by light microscopy for intact sarcolemmal membranes and regular striation patterns. Muscle fibers that fulfill these criteria were bathed in the isotonic solution, a physiological resting condition. Measurement of SR Ca^2+ release was performed on a BioRad Radiance-2100 confocal microscope equipped with Argon laser ([…]), Helium-Neon laser (632 nm), and a 40×, 1.3 NA oil immersion objective. An acquisition rate of 2 ms perline was used for line scan imaging, while serial x-y images were acquired at 3.08 s per frame (512×512 pixels). Osmotic shock to disrupt the juxtaposition of membrane coupling was applied to analyze whether knockdown of Bin1 alters the Ca^2+ sparks activity. Initially, fiber was perfused with isotonic solution for 30 seconds prior to applying hypotonic Tyrode solution (170 mOsm) for 1 minute that induces membrane swelling. […] For each animal, 3-4 fibers were treated by osmotic shock, and from each fiber 2 images (comprised of 30000 2 ms linescans of 512 pixels) were recorded. Image analysis and normalization of linescan intensities to the calculated resting fluorescence (F0) and determination of the amplitude and duration of individual events was performed using custom routines for IDL software. […]
(§4) Solutions. […] 5 CaCl2, 2 MgCl2 and 10 HEPES (ph 7.2), with measured osmolality of 290 mOsm. […]

db/db muscle fibers = assay: as above; format: cell-based, mouse
Procedure: as §1, §2, §3, §4

[2] = tested on: extensor digitorum longus (EDL) of non-fasted db/db mice; assay: Ex vivo contractility assay, force recovery after fatigue; design: species or system mouse
Procedure: Application of GLP1 can improve contractility in skeletal muscle from diabetic mice. […] This leads us to test whether the increased Ca sparks activity can be translated as increased muscle force as measured by ex vivo contractility assays. The extensor digitorum longus (EDL) of non-fasted db/db mice is mounted to a force transducer and electrically stimulated following the protocol shown in FIG. 11. A 10 fold higher dose of GLP1 (100 nM) used in the Ca^2+ spark experiments is applied to the contractility study, to take into account the increased mass of the anatomical muscle over the isolated muscle fiber. Muscles were tested for their maximum force (Tmax) produced at various frequencies and then fatigued using rapid pulses of an electric field, which was then followed by another measurement of Tmax. Following 1 hour of GLP1 application, this stimulation protocol was repeated on the same muscles (FIG. 11a). Calculating the ratio of Tmax before and after GLP1 application will show how the application of GLP1 can influence the recovery of muscle function following fatigue.
Intact EDL and soleus muscle isolation. Intact EDL and soleus muscles were dissected from mice and maintained in Isotonic Tyrode solution supplemented with 12 mM glucose, continuously bubbled with 100% O2. […] Muscles were mounted vertically on a glass-stimulating apparatus (Radnoti) with platinum electrodes and attached to a movable isometric force transducer and to a stationary anchor, which allowed muscles to be stretched until both maximal forces for a given frequency and the frequency producing Tmax were obtained.
Force measurements during fatigue. A Powerlab computer-interface program (ADInstruments) was used to control the electrical stimulation protocols and to record, digitize and store force output data. […] Forces were normalized into gram after calibration and all data were analyzed by Origin software (OriginLab). […]
as §4

rat's soleus muscle = settings: rat soleus incubated with GLP1; cited from earlier work
[3] = Insulin challenge, blood glucose after bolus IP injection; format: in vivo, mouse; settings: IP injection of insulin
Procedure: FIG. 6. Mice null for MG29 (mg29−/−) display compromised response to insulin challenge. Fasting blood glucose levels were measured in mice following a bolus IP injection of insulin at time 0 on chart. […] Mean±SEM is shown. ANOVA is used for analysis with **: P<0.01;***P<0.001.

N[C@@H](CC(=O)N1CCn2c(nnc2C(F)(F)F)C1)Cc1cc(F)c(F)cc1F [Januvia, Sitagliptin]
blood glucose [1]: normalization

GLP1 7-36 Amide (HAEGTFTSDVSSYLEGQAAKEFIAWLVKGR-NH2; UniProt P01275 98-127, looked up) [Glucagon like peptide 1 (GLP1) of pro-glucagon origin is a type of incretin hormone; obtained from Sigma]
peripheral subsarcolemmal distribution of Ca2+ sparks (WT muscle fibers; WT fibers): does not alter | Ca2+ spark frequency (WT muscle fibers; WT muscle): minimal increases | Ca2+ spark events / frequency (db/db muscle fibers; db/db FDB fibers after osmotic shock, GLP1 10 nM for 1 hour): significantly improves; also recorded: can be reversed; also recorded: significant increased | peripheral subsarcolemmal distribution of Ca2+ sparks (db/db muscle fibers; db/db fibers, GLP1 treatment): does not alter | GLP1 effect on Ca2+ sparks by blood glucose group (db/db muscle fibers; db/db mice, high blood glucose >330 mg/dL vs lower blood glucose <260 mg/dL): maximum activity on db/db mice that exhibit high hyperglycemia condition | twitch ratio ([2]; after GLP1 treatment, 100 nM): no significant change | Tmax recovery ratio (maximal force after fatigue to before fatigue) ([2]; db/db EDL, 100 nM GLP1 for 1 h): back to the levels seen in the WT muscles; also recorded: improves muscle force | force frequency relationship ([2]; db/db muscle, 100 nM GLP1): did not significantly alter | PKB activity (rat's soleus muscle): increased | glycogen synthase activity (rat's soleus muscle): increased

insulin
blood glucose level ([3]; mg29-/- mice): much less effect | blood glucose ([3]; wild type control animals): significant decrease
